Starred links: 1 amine or outer side, 2 acyl side, 3 side chain; linkers in the order of their positions; H or OH if unused. Positions of bridges follow the written chain, without caps; N, C: chain ends. Residues, ends and D or L forms follow the SMILES beside them. X4 = C#CCON=C(C)C([*:1])[*:2]
Key:
[1] = target: T1, α-chymotrypsin (Bos taurus, UniProt P00766); test: Resistance to α-chymotrypsin digestion followed by reverse-phase HPLC; type: in vitro ADME, bovine; settings: for change of HPLC peak after addition of α-chymotrypsin: α-chymotrypsin 1/10 weight ratio, 37° C.; for resistance to protease (FIG. 10): α-chymotrypsin
T1 construct: purchased MP Biomedicals; host or cells: bovine pancreas
Method: For evaluation of stability of a peptide by crosslinking reaction, resistivity of α-chymotrypsin (derived from bovine pancreas, manufactured by MP Biomedicals) to protease decomposition was evaluated with oxytocin crosslinked by 2,2-dichloroacetophenone. Crosslinking of oxytocin by 2,2-dichloroacetophenone was performed in the same manner with replacement of 1.1-dichloroacetone in Example 11 by 2,2-dichloroacetophenone, and an objective product was taken by reverse-phase HPLC. Specifically, 10 mg (10 μmol) of oxytocin acetate was dissolved in 3 mL of a 0.1 M HEPES hydrochloric acid buffer (pH 8.0), the solution was mixed with 2 mL of a 0.1 M HEPES hydrochloric acid buffer (pH 8.0) containing 57.4 mg (200 μmol) of TCEP-HCl, and the mixture was stirred for 1 hour. Next, 8.3 mg (44 μmol) of 2,2-dichloroacetophenone dissolved in 0.44 mL of acetonitrile was added and mixed, and the mixture was stirred at room temperature for 1 hour. The resulting sample was applied to an InertSustain C18 column (5 μm, 14×250 mm, manufactured by GL Sciences Inc.) (flow rate 5 mL/min) connected to LC-Forte (manufactured by YMC). The elution was performed at a linear gradient from 4% to 70% (containing 0.1% formic acid). An objective product was taken, and freeze-dried after removal of acetonitrile at a negative pressure.
Evaluation was made with oxytocin-OX and an oxytocin SH reduced form (oxytocin-RD) shown by the following formula A3 used as comparison subjects. In other words, an oxytocin solution obtained by dissolution in a 0.1 M phosphate buffer (pH 7.0) at 0.5 mg/mL was adopted as oxytocin-OX, and a substance obtained after a lapse of 30 minutes from addition of an oxytocin solution obtained by dissolution in a 0.1 M phosphate buffer (pH 7.0) containing 0.5 mg/mL TCEP, at 0.5 mg/mL, was adopted as oxytocin-RD. To 200 μL of each of these solutions was 10 μL ( 1/10 on weight ratio to oxytocin) of 1 mg/mL α-chymotrypsin, and the resultant was subjected to incubation at 37° C. and analysis by reverse-phase HPLC. In the case of blank, a phosphate buffer was added instead of α-chymotrypsin.
A substance obtained after a lapse of 30 minutes from dissolution of 0.5 mg/mL oxytocin-DP purified, in a 0.1 M phosphate buffer (pH 7.0) containing 0.5 mg/mL TCEP, was adopted as a sample, and similarly α-chymotrypsin was added and analysis by reverse-phase HPLC was made.

[2] = target: human IgG1 (Homo sapiens, UniProt P01857); test: SPR (BIAcore T200) measurement of binding affinity of crosslinked cyclic peptide to immobilized IgG
Sequence of human IgG1 (P01857 1-328 limits assumed): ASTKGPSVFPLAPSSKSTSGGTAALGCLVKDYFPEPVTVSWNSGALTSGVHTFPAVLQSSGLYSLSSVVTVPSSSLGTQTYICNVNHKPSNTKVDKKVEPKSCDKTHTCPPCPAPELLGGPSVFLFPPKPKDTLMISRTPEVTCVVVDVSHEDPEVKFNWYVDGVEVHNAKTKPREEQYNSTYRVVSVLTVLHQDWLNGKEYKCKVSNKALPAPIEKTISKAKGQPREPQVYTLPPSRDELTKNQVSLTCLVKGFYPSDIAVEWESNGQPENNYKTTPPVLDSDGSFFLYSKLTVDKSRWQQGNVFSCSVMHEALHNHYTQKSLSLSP
Method: The affinity analysis was performed by the following method. First, a CM5 sensor chip was installed on BIAcoreT200 (GE healthcare), and 0.4 M 1-ethyl-3-(3-dimethylaminopropyl)carbodiimide (EDC) and a 0.1 M sulfo-N-hydroxysuccinimide (sulfo-NHS) solution mixed in equivalent amounts were injected to the sensor chip at a flow rate of […], to thereby activate the sensor chip. Thereafter, IgG was immobilized onto the sensor chip under a condition of a pH of 5.5 (10 mM Na acetate). An HBS-EP buffer (10 mM HEPES, 150 mM NaCl, 0.005% Tween 20, 3 mM EDTA, pH 7.4) was used in measurement, and 15.625, 31.2, 62.5, 125, 250, and 500 nM of peptides were each injected at a flow rate of […] for 180 seconds, to thereby monitor binding reaction. When dissociation reaction was measured, only the buffer was injected for 600 seconds. The interaction parameter was analyzed with BIAevaluation T100 software.
IgG-binding peptide derivatives compared and evaluated are illustrated in FIG. 1.

[3] = system: human serum-derived IgG; test: Dynamic binding capacity (DBC) measurement and alkali resistance evaluation of peptide-immobilized column; settings: for Dynamic binding capacity: 10% breakthrough
Method: Five mL of 1 mM hydrochloric acid was sent to an NHS-activated prepacked column having a volume of 1 mL, and an isopropanol solution in the column was removed. Next, a 10.0 mg/mL peptide solution (dissolved in 100 μL of DMSO) was diluted with a coupling solution (20 mM carbonate buffer, 50 mM sodium chloride, pH 8.3) by 10-fold, 1 mL of the dilution liquid was sent, and immobilization was performed at room temperature for 4 hours. Thereafter, unreacted NHS was blocked by 5 mL of 1 M Tris (pH 8.0) at room temperature for 1 hour. Thereafter, washing with 5 mL of an aqueous 0.1 N NaOH solution was made. Finally, 10 mL of a PBS solution (20 mM phosphate buffer, 150 mM sodium chloride, pH 7.4) was sent, and used in chromatography evaluation.
A column where the amount of immobilization of a peptide was 1 mg was produced by the same method as described above. The column produced was equilibrated with PBS, and 1 mg/mL human serum-derived IgG (manufactured by Sigma-Aldrich Co. LLC) dissolved in PBS was sent at a flow rate of 1 mL/min (retention time 1 min). DBC was indicated as one determined from the amount of a protein added at the time of point where 10% of the absorbance at 280 nm of the sample added was leaked.
Next, 5 mL of an aqueous 0.1 N sodium hydroxide solution was sent to the 1-mL column where 1 mg of the peptide was immobilized. Thereafter, washing with PBS was performed. This cycle was repeated 30 times for the 1,1-dichloroacetone-crosslinked cyclic peptide, and was repeated 10 times for the 1,1-dichloropinacolin-crosslinked cyclic peptide. DBC measurement was performed at a flow rate of 1 mL/min at the 1st to 5th and 10th times of the cycles, and further performed at the 20th and 30th times of the cycles with respect to the 1,1-dichloroacetone-crosslinked cyclic peptide, and thus alkali resistance was evaluated. The variation in DBC was determined based on the measurement results under the assumption that DBC immediately after column production was 100% according to Table 2.
Five mL of a 0.1 M sodium hydroxide solution was sent to the produced 1-mL column where the amount of immobilization of a peptide was 1 mg, and thereafter washing with 5 mL of PBS was performed. These operations were defined as one cycle and treatment of washing with aqueous NaOH solution/washing with PBS was performed 1 to 30 times, and thereafter DBC measurement was performed at a flow rate of 1 mL/min at the intended number of times (1, 2, 3, 4, 5, 10, 20, 30 times).

[4] = target: human IgG1 (human); test: SPR, BIAcore T200, IgG immobilised on CM5 chip, peptide as analyte
[5] = target: human IgG1 (human); test: SPR, same affinity measurement as in Example 4
[6] = target: human IgG1 (human); test: SPR, BIAcore T200, IgG immobilised on CM5 chip
[7] = target: human serum-derived IgG (manufactured by Sigma-Aldrich Co. LLC); test: peptide-immobilised column, human serum IgG, 10% breakthrough
[8] = 0.1 M phosphate buffer pH 7.0 containing 0.5 mg/mL TCEP
[9] = in the presence of reducing agent TCEP
[10] = number of washing times with 0.1 N NaOH: 1

CCC(C)C1NC(=O)C(Cc2ccc(O)cc2)NC(=O)C(N)CSC(C(=O)c2ccccc2)SCC(C(=O)N2CCCC2C(=O)NC(CC(C)C)C(=O)NCC(N)=O)NC(=O)C(CC(N)=O)NC(=O)C(CCC(N)=O)NC1=O (stereo not drawn) [oxytocin-DP]
change of HPLC peak after addition of α-chymotrypsin [1, 8]: no decrease was observed | resistance to protease (FIG. 10) [1, 9]: high resistance

CCC(C)C1NC(=O)C(Cc2ccc(O)cc2)NC(=O)C(N)CS/C(=C/c2ccccc2)SCC(C(=O)N2CCCC2C(=O)NC(CC(C)C)C(=O)NCC(N)=O)NC(=O)C(CC(N)=O)NC(=O)C(CCC(N)=O)NC1=O (stereo not drawn) [oxytocin-DP-RDH]
change of HPLC peak after addition of α-chymotrypsin [1, 8]: no decrease was observed | resistance to protease (FIG. 10) [1, 9]: high resistance

C#CCON=C(C)C1SC[C@H](NC(=O)[C@H](CC(=O)O)NC(=O)[C@@H]2CCCN2C(=O)CNC(=O)[C@H](CO)NC(=O)CNC(=O)CNC(=O)[C@H](CO)NC(=O)CN)C(=O)N[C@@H](C)C(=O)N[C@@H](Cc2ccc(O)cc2)C(=O)N[C@@H](Cc2c[nH]cn2)C(=O)N[C@@H](CCCNC(=N)N)C(=O)NCC(=O)N[C@@H](CCC(=O)O)C(=O)N[C@@H](CC(C)C)C(=O)N[C@@H](C(C)C)C(=O)N[C@@H](Cc2c[nH]c3ccccc23)C(=O)N[C@H](C(=O)N[C@H](C(=O)N[C@@H](Cc2ccccc2)C(=O)N[C@@H](Cc2c[nH]cn2)C(N)=O)[C@@H](C)O)CS1 (stereo partly drawn) (H-GSGGSGPDCAYHRGELVWCTFH-NH2; linker 9-19 via X4; C-terminus assumed)
reduction of affinity as compared with the original peptide ([2]; Kd relative to original disulfide IgG-binding peptide): about 42 fold | Kd ([2]; SPR, human IgG1): 334 nM

CC(C)C[C@@H]1NC(=O)[C@H](CCC(=O)O)NC(=O)CNC(=O)[C@H](CCCNC(=N)N)NC(=O)[C@H](Cc2c[nH]cn2)NC(=O)[C@H](Cc2ccc(O)cc2)NC(=O)[C@H](C)NC(=O)[C@@H](NC(=O)[C@H](CC(=O)O)NC(=O)[C@@H]2CCCN2C(=O)CNC(=O)[C@H](CO)NC(=O)CNC(=O)CNC(=O)[C@H](CO)NC(=O)CN)CSSC[C@@H](C(=O)N[C@H](C(=O)N[C@@H](Cc2ccccc2)C(=O)N[C@@H](Cc2c[nH]cn2)C(=O)O)[C@@H](C)O)NC(=O)[C@H](Cc2c[nH]c3ccccc23)NC(=O)[C@H](C(C)C)NC1=O [IgG-BP-LongGS Original] (H-GSGGSGPDCAYHRGELVWCTFH-OH; disulfide 9-19; N-terminus and C-terminus assumed)
kd ([2]; SPR, IgG immobilized on CM5 chip, HBS-EP pH 7.4): 0.019 | ka ([2]; SPR, IgG immobilized on CM5 chip, HBS-EP pH 7.4, in M-1 s-1 (unit assumed)): 2.37E+06 | change in amount of binding of the antibody to the column by alkali washing (FIG. 2) ([3]; 0.1 M NaOH washing/PBS washing, 1 to 30 cycles): reduced by alkali washing | value of DBC, by itself, of peptide-immobilized column ([3]; before repeated alkali washing, 1 mL/min): 17.24 mg/mL | initial value of DBC of peptide column ([3]; initial value, 1 mg peptide on 1-mL column, 1 mL/min): 17.24 mg/mL-column | Variation (%) in dynamic binding capacity [3, 10]: 100.0% | Variation (%) in maximum binding capacity [3, 10]: 100.0% | Maximum binding capacity ([3]; number of washing times with 0.1 N NaOH: 1, 1 mg peptide on 1-mL column): 12.37 mg | Dynamic binding capacity ([3]; number of washing times with 0.1 N NaOH: 1, 1 mL/min): 17.24 mg/mL | Variation (%) in maximum binding capacity ([3]; number of washing times with 0.1 N NaOH: 5): 49.2% | Maximum binding capacity ([3]; number of washing times with 0.1 N NaOH: 5, 1 mg peptide on 1-mL column): 6.09 mg | Dynamic binding capacity ([3]; number of washing times with 0.1 N NaOH: 5, 1 mL/min): 8.74 mg/mL | Variation (%) in dynamic binding capacity ([3]; number of washing times with 0.1 N NaOH: 5, listed as IgG-BP-LGS): 50.7% | Variation (%) in dynamic binding capacity ([3]; number of washing times with 0.1 N NaOH: 5, listed as original IgG-binding peptide-immobilized column having a disulfide bond): ≤ 50%

CCC(C)C1NC(=O)C(Cc2ccc(O)cc2)NC(=O)C(N)CSSCC(C(=O)N2CCCC2C(=O)NC(CC(C)C)C(=O)NCC(N)=O)NC(=O)C(CC(N)=O)NC(=O)C(CCC(N)=O)NC1=O (stereo not drawn) [oxytocin-OX, Cys-Tyr-Ile-Gln-Asn-Cys-Pro-Leu-Gly-NH2]
change of HPLC peak after addition of α-chymotrypsin ([1]; 0.1 M phosphate buffer pH 7.0, no TCEP, 15 minutes to 2 hours): no change of any peak was observed | resistance to protease (FIG. 10) ([1]; no TCEP): high protease resistance

CCC(C)C(NC(=O)C(Cc1ccc(O)cc1)NC(=O)C(N)CS)C(=O)NC(CCC(N)=O)C(=O)NC(CC(N)=O)C(=O)NC(CS)C(=O)N1CCCC1C(=O)NC(CC(C)C)C(=O)NCC(N)=O (stereo not drawn) [oxytocin-RD]
change of HPLC peak after addition of α-chymotrypsin [1, 8]: any peak disappeared after only 10 minutes | resistance to protease (FIG. 10) [1, 9]: extremely low

B1: 2,2-dichloroacetophenone-crosslinked cyclic peptide of IgG-BP-LongGS (peptide)
peptide: GSGGSGPDCAYHRGELVWCTFH
modifications: the thiol groups of the two Cys residues crosslinked with 2,2-dichloroacetophenone in place of the disulfide bond; Fmoc removed
Kd [4]: 6.4 nM

B2: alkyne functional group-introduced, crosslinked and cyclized peptide (1,1-dichloroacetone-crosslinked IgG-BP-LongGS reacted with O-2-Propynylhydroxylamine) (peptide)
peptide: GSGGSGPDCAYHRGELVWCTFH
modifications: not fully specified; the two Cys thiols crosslinked with 1,1-dichloroacetone; the crosslink reacted with O-2-Propynylhydroxylamine hydrochloride to introduce an alkyne group
Kd [5]: 334 nM | fold reduction of affinity against the original peptide [5]: 42 fold

B3: 1,3-dichloroacetone-crosslinked cyclic peptide of IgG-BP-LongGS (peptide)
peptide: GSGGSGPDCAYHRGELVWCTFH
modifications: the thiol groups of the two Cys residues crosslinked with 1,3-dichloroacetone in place of the disulfide bond
fold reduction of affinity against the original peptide [6]: 500 fold | initial value of DBC [7]: 2.3 mg/mL-column | Kd [4]: 4900 nM

Source: patent US20240391950A1, “PEPTIDE CROSSLINKING AGENT AND CROSSLINKED PEPTIDE WHICH IS CROSSLINKED USING SAID CROSSLINKING AGENT” (Kagoshima University, priority 2020, published 2024)
